In brackets after ≈: the same amount, converted by molar mass.
Test system: up to 32 different microorganisms
Assay: in vitro antibacterial activity (MIC), agar dilution on Brain Heart Infusion (BHI) agar with Steers replicator
Type: cell-based
Details: unit assumed
How it was run: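 MIC read visually: lowest drug level with no growth, slight haze or sparsely isolated colonies on the inoculum spot relative to drug-free control. Serial aqueous compound dilutions in BHI agar, 1:100 inoculum (1:10 slow strains), 20 to 24 hours at 35°-37° C.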

SMILES	MIC (organism code AA)	MIC (organism code CC)	MIC (organism code DD)	MIC (organism code EE)	MIC (organism code FF)	MIC (organism code GG)	MIC (organism code HH)	MIC (organism code II)	MIC (organism code JJ)	MIC (organism code KK)	MIC (organism code LL)	MIC (organism code MM)	MIC (organism code NN)	MIC (organism code OO)	MIC (organism code PP)	MIC (organism code QQ)	MIC (organism code RR)	MIC (organism code SS)	MIC (organism code TT)	MIC (organism code UU)	other results
CCC1OC(=O)C(C)C(=O)C(C)C(OC2OC(C)CC(N(C)C)C2O)C(C)(OCC=Cc2ccc3nccnc3c2)CC(C)C(=O)C(C)C2NC(=O)OC12C (stereo not shown) [Example 207, R is —CH2CH═CH-(6-quinoxalinyl)]	0.1 µg/mL (≈ 0.13 µM)	> 100 µg/mL	0.1 µg/mL (≈ 0.13 µM)	0.1 µg/mL (≈ 0.13 µM)	0.1 µg/mL (≈ 0.13 µM)	> 100 µg/mL	0.1 µg/mL (≈ 0.13 µM)	0.02 µg/mL (≈ 0.0261 µM)	≤ 0.005 µg/mL	≤ 0.005 µg/mL	0.01 µg/mL (≈ 0.013 µM)	1.56 µg/mL (≈ 2.03 µM)	0.2 µg/mL (≈ 0.261 µM)	0.01 µg/mL (≈ 0.013 µM)	0.1 µg/mL (≈ 0.13 µM)	25 µg/mL (≈ 32.6 µM)	0.2 µg/mL (≈ 0.261 µM)	50 µg/mL (≈ 65.2 µM)	> 100 µg/mL	0.39 µg/mL (≈ 0.509 µM)	MIC (organism code BB): 0.1 µg/mL (≈ 0.13 µM); MIC (organism code VV): 0.02 µg/mL (≈ 0.0261 µM); MIC (organism code WW): 2 µg/mL (≈ 2.61 µM); MIC (organism code XX): 0.015 µg/mL (≈ 0.0196 µM); MIC (organism code YY): 0.015 µg/mL (≈ 0.0196 µM); MIC (organism code ZZ): 64 µg/mL (≈ 83.4 µM); MIC (organism code ZZA): 0.5 µg/mL (≈ 0.652 µM)
CCC1OC(=O)C(C)C(=O)C(C)C(OC2OC(C)CC(N(C)C)C2O)C(C)(OCC=Cc2cnc3ccc(O)cc3c2)CC(C)C(=O)C(C)C2NC(=O)OC12C (stereo not shown) [Example 208, R is —CH2CH═CH-(6-hydroxy-3-quinolyl)]	0.1 µg/mL (≈ 0.128 µM)	> 100 µg/mL	0.2 µg/mL (≈ 0.256 µM)	0.2 µg/mL (≈ 0.256 µM)	0.2 µg/mL (≈ 0.256 µM)	> 100 µg/mL	0.2 µg/mL (≈ 0.256 µM)	0.1 µg/mL (≈ 0.128 µM)	0.01 µg/mL (≈ 0.0128 µM)	0.01 µg/mL (≈ 0.0128 µM)	0.01 µg/mL (≈ 0.0128 µM)	0.78 µg/mL (≈ 0.998 µM)	0.39 µg/mL (≈ 0.499 µM)	0.01 µg/mL (≈ 0.0128 µM)	0.1 µg/mL (≈ 0.128 µM)	25 µg/mL (≈ 32 µM)	0.39 µg/mL (≈ 0.499 µM)	50 µg/mL (≈ 63.9 µM)	> 100 µg/mL	0.78 µg/mL (≈ 0.998 µM)	MIC (organism code BB): 0.39 µg/mL (≈ 0.499 µM); MIC (organism code VV): 0.2 µg/mL (≈ 0.256 µM); MIC (organism code WW): 2 µg/mL (≈ 2.56 µM); MIC (organism code XX): 0.03 µg/mL (≈ 0.0384 µM); MIC (organism code YY): 0.03 µg/mL (≈ 0.0384 µM); MIC (organism code ZZ): 4 µg/mL (≈ 5.12 µM); MIC (organism code ZZA): 1 µg/mL (≈ 1.28 µM)
CCC1OC(=O)C(C)C(=O)C(C)C(OC2OC(C)CC(N(C)C)C2O)C(C)(OCC=Cc2cnc3ccc(OC)cc3c2)CC(C)C(=O)C(C)C2NC(=O)OC12C (stereo not shown) [Example 209, R is —CH2CH═CH-(6-methoxy-3-quinolyl)]	0.05 µg/mL (≈ 0.0628 µM)	> 100 µg/mL	0.1 µg/mL (≈ 0.126 µM)	0.1 µg/mL (≈ 0.126 µM)	0.1 µg/mL (≈ 0.126 µM)	> 100 µg/mL	0.1 µg/mL (≈ 0.126 µM)	0.02 µg/mL (≈ 0.0251 µM)	0.01 µg/mL (≈ 0.0126 µM)	0.01 µg/mL (≈ 0.0126 µM)	0.01 µg/mL (≈ 0.0126 µM)	3.1 µg/mL (≈ 3.89 µM)	0.1 µg/mL (≈ 0.126 µM)	0.01 µg/mL (≈ 0.0126 µM)	0.2 µg/mL (≈ 0.251 µM)	100 µg/mL (≈ 126 µM)	0.2 µg/mL (≈ 0.251 µM)	> 100 µg/mL	> 100 µg/mL	0.78 µg/mL (≈ 0.98 µM)	MIC (organism code VV): 0.02 µg/mL (≈ 0.0251 µM); MIC (organism code WW): 2 µg/mL (≈ 2.51 µM); MIC (organism code XX): 0.03 µg/mL (≈ 0.0377 µM); MIC (organism code YY): 0.03 µg/mL (≈ 0.0377 µM); MIC (organism code ZZ): 4 µg/mL (≈ 5.03 µM); MIC (organism code ZZA): 0.5 µg/mL (≈ 0.628 µM)
CCC1OC(=O)C(C)C(=O)C(C)C(OC2OC(C)CC(N(C)C)C2O)C(C)(OCC=Cc2cnc3cccc([N+](=O)[O-])c3c2)CC(C)C(=O)C(C)C2NC(=O)OC12C (stereo not shown) [Example 210, R is —CH2CH═CH-(5-nitro-3-quinolyl)]	0.1 µg/mL (≈ 0.123 µM)	> 100 µg/mL	0.1 µg/mL (≈ 0.123 µM)	0.1 µg/mL (≈ 0.123 µM)	0.1 µg/mL (≈ 0.123 µM)	> 100 µg/mL	0.1 µg/mL (≈ 0.123 µM)	0.02 µg/mL (≈ 0.0247 µM)	≤ 0.005 µg/mL	≤ 0.005 µg/mL	0.01 µg/mL (≈ 0.0123 µM)	0.78 µg/mL (≈ 0.962 µM)	0.2 µg/mL (≈ 0.247 µM)	0.02 µg/mL (≈ 0.0247 µM)	0.2 µg/mL (≈ 0.247 µM)	50 µg/mL (≈ 61.7 µM)	0.2 µg/mL (≈ 0.247 µM)	> 100 µg/mL	> 100 µg/mL	0.78 µg/mL (≈ 0.962 µM)	MIC (organism code VV): 0.02 µg/mL (≈ 0.0247 µM); MIC (organism code WW): 3 µg/mL (≈ 3.7 µM); MIC (organism code XX): 0.015 µg/mL (≈ 0.0185 µM); MIC (organism code YY): ≤ 0.004 µg/mL; MIC (organism code ZZ): 4 µg/mL (≈ 4.93 µM); MIC (organism code ZZA): 0.25 µg/mL (≈ 0.308 µM)
CCC1OC(=O)C(C)C(=O)C(C)C(OC2OC(C)CC(N(C)C)C2O)C(C)(OCC=Cc2cnc3c([N+](=O)[O-])cccc3c2)CC(C)C(=O)C(C)C2NC(=O)OC12C (stereo not shown) [Example 211, R is —CH2CH═CH-(8-nitro-3-quinolyl)]	0.05 µg/mL (≈ 0.0617 µM)	> 100 µg/mL	0.1 µg/mL (≈ 0.123 µM)	0.1 µg/mL (≈ 0.123 µM)	0.1 µg/mL (≈ 0.123 µM)	> 100 µg/mL	0.05 µg/mL (≈ 0.0617 µM)	0.01 µg/mL (≈ 0.0123 µM)	0.01 µg/mL (≈ 0.0123 µM)	0.01 µg/mL (≈ 0.0123 µM)	0.01 µg/mL (≈ 0.0123 µM)	3.1 µg/mL (≈ 3.82 µM)	0.1 µg/mL (≈ 0.123 µM)	0.01 µg/mL (≈ 0.0123 µM)	0.1 µg/mL (≈ 0.123 µM)	25 µg/mL (≈ 30.8 µM)	0.2 µg/mL (≈ 0.247 µM)	50 µg/mL (≈ 61.7 µM)	> 100 µg/mL	0.39 µg/mL (≈ 0.481 µM)	MIC (organism code BB): 0.05 µg/mL (≈ 0.0617 µM); MIC (organism code VV): 0.05 µg/mL (≈ 0.0617 µM); MIC (organism code WW): 2 µg/mL (≈ 2.47 µM); MIC (organism code XX): ≤ 0.004 µg/mL; MIC (organism code YY): ≤ 0.004 µg/mL; MIC (organism code ZZ): 16 µg/mL (≈ 19.7 µM); MIC (organism code ZZA): 0.25 µg/mL (≈ 0.308 µM)
CCC1OC(=O)C(C)C(=O)C(C)C(OC2OC(C)CC(N(C)C)C2O)C(C)(OCC=Cc2ccc3ccccc3n2)CC(C)C(=O)C(C)C2NC(=O)OC12C (stereo not shown) [Example 212, R is —CH2CH═CH-(2-quinolyl)]	0.39 µg/mL (≈ 0.509 µM)	> 100 µg/mL	0.39 µg/mL (≈ 0.509 µM)	0.39 µg/mL (≈ 0.509 µM)	0.39 µg/mL (≈ 0.509 µM)	> 100 µg/mL	0.39 µg/mL (≈ 0.509 µM)	0.1 µg/mL (≈ 0.131 µM)	≤ 0.005 µg/mL	0.1 µg/mL (≈ 0.131 µM)	0.05 µg/mL (≈ 0.0653 µM)	25 µg/mL (≈ 32.6 µM)	0.39 µg/mL (≈ 0.509 µM)	0.05 µg/mL (≈ 0.0653 µM)	0.39 µg/mL (≈ 0.509 µM)	> 100 µg/mL	0.39 µg/mL (≈ 0.509 µM)	> 100 µg/mL	> 100 µg/mL	0.78 µg/mL (≈ 1.02 µM)	MIC (organism code BB): 0.39 µg/mL (≈ 0.509 µM); MIC (organism code VV): 0.2 µg/mL (≈ 0.261 µM); MIC (organism code WW): 8 µg/mL (≈ 10.4 µM); MIC (organism code XX): 0.125 µg/mL (≈ 0.163 µM); MIC (organism code YY): 0.25 µg/mL (≈ 0.326 µM); MIC (organism code ZZ): 128 µg/mL (≈ 167 µM); MIC (organism code ZZA): 1 µg/mL (≈ 1.31 µM)
CCC1OC(=O)C(C)C(=O)C(C)C(OC2OC(C)CC(N(C)C)C2O)C(C)(OCC=Cc2ccnc3ccccc23)CC(C)C(=O)C(C)C2NC(=O)OC12C (stereo not shown) [Example 213, R is —CH2CH═CH-(4-quinolyl)]	0.2 µg/mL (≈ 0.261 µM)	> 100 µg/mL	0.2 µg/mL (≈ 0.261 µM)	0.2 µg/mL (≈ 0.261 µM)	0.2 µg/mL (≈ 0.261 µM)	> 100 µg/mL	0.2 µg/mL (≈ 0.261 µM)	0.1 µg/mL (≈ 0.131 µM)	0.05 µg/mL (≈ 0.0653 µM)	0.05 µg/mL (≈ 0.0653 µM)	0.02 µg/mL (≈ 0.0261 µM)	100 µg/mL (≈ 131 µM)	0.39 µg/mL (≈ 0.509 µM)	0.05 µg/mL (≈ 0.0653 µM)	0.2 µg/mL (≈ 0.261 µM)	100 µg/mL (≈ 131 µM)	0.39 µg/mL (≈ 0.509 µM)	> 100 µg/mL	> 100 µg/mL	0.39 µg/mL (≈ 0.509 µM)	MIC (organism code BB): 0.2 µg/mL (≈ 0.261 µM); MIC (organism code VV): 0.39 µg/mL (≈ 0.509 µM); MIC (organism code WW): 4 µg/mL (≈ 5.22 µM); MIC (organism code XX): 0.03 µg/mL (≈ 0.0392 µM); MIC (organism code YY): 0.03 µg/mL (≈ 0.0392 µM); MIC (organism code ZZ): > 128 µg/mL; MIC (organism code ZZA): 1 µg/mL (≈ 1.31 µM)
CC[C@H]1OC(=O)[C@H](C)C(=O)[C@H](C)[C@@H](O[C@@H]2O[C@H](C)C[C@H](N(C)C)[C@H]2O)[C@@](C)(OCC=Cc2cnc3ccc(C(=O)O)cc3c2)C[C@@H](C)C(=O)[C@H](C)[C@H]2NC(=O)O[C@@]21C [Example 214]	6.2 µg/mL (≈ 7.65 µM)	> 100 µg/mL	12.5 µg/mL (≈ 15.4 µM)	12.5 µg/mL (≈ 15.4 µM)	12.5 µg/mL (≈ 15.4 µM)	> 100 µg/mL	25 µg/mL (≈ 30.9 µM)	25 µg/mL (≈ 30.9 µM)	6.2 µg/mL (≈ 7.65 µM)	3.1 µg/mL (≈ 3.83 µM)	1.56 µg/mL (≈ 1.93 µM)	12.5 µg/mL (≈ 15.4 µM)	25 µg/mL (≈ 30.9 µM)	12.5 µg/mL (≈ 15.4 µM)	12.5 µg/mL (≈ 15.4 µM)	> 100 µg/mL	3.1 µg/mL (≈ 3.83 µM)	> 100 µg/mL	> 100 µg/mL	100 µg/mL (≈ 123 µM)	MIC (organism code BB): 251 µg/mL (≈ 310 µM); MIC (organism code VV): 50 µg/mL (≈ 61.7 µM); MIC (organism code WW): 64 µg/mL (≈ 79 µM); MIC (organism code XX): 1 µg/mL (≈ 1.23 µM); MIC (organism code YY): 1 µg/mL (≈ 1.23 µM); MIC (organism code ZZ): > 128 µg/mL; MIC (organism code ZZA): 32 µg/mL (≈ 39.5 µM)

— patent USRE39591E1, “6-O-substituted ketolides having antibacterial activity” (Abbott Laboratories, priority 1996, dated 2007)
